Measured values reported in PMC9221371, “Flavonoid Derivatives as Potential Cholinesterase Inhibitors in Scopolamine-Induced Amnesic Mice: An In Vitro, In Vivo and Integrated Computational Approach” (Brain Sciences, 2022).
Read-outs that look alike come from different tables or passages of the source.

What was measured:
[1] = biological target: T1, BuChE (equine serum lyophilized) (Equus caballus, UniProt P81908); experiment: biochemical; conditions: triplicate; read-out: BChE IC50 (converted)
T1 construct: purchased Sigma-Aldrich (Taufkirchen, Germany); host or cells: equine serum
Protocol: (§1) Synthetic flavonoids F1–F5 previously synthesized by our group were used in the study.
(§2) For the determination of acetylcholinesterase inhibitory potentials, AChE and BuChE were used. […] To the tube were added DTNB (100 µL) and buffer (2.4 mL). The tube was incubated at 25 °C for 5 min as pre-incubation. The reaction was started by adding ATChI (40 µL), and the mixture was incubated at 25 °C for 20 min. The absorbance at 412 nm was measured spectrophotometrically in triplicate. […] The data were recorded in triplicate, and IC50 was calculated.

[2] = biological target: T2, AChE (electric eel type-VI-S) (Electrophorus electricus, UniProt O42275); experiment: biochemical; conditions: 25 °C, triplicate
T2 construct: purchased Sigma-Aldrich (Taufkirchen, Germany)
Protocol: as §1, §2

[3] = test system: brains of scopolamine-induced amnesic mice; experiment: Antioxidant enzyme activities and oxidative stress markers in brain homogenate; format: in vivo, Balb/C mice
Protocol: (§3) The animals in the control (normal) and scopolamine amnesic groups were administered vehicle (Tween-80, 2%) only. Treated animals received F1–F5 suspended in Tween-80 (2%) p.o. at their respective doses for a period of 4 weeks. […] For assessing behavioral effects using the Y-Maze Paradigm and novel object discrimination (NOD) task, scopolamine (1 mg/kg, i.p.) was given to the different groups, 30 min after the respective treatments, to induce memory impairment (amnesia) in mice. All of the tests were performed between 8:00 a.m. and 6:00 p.m. to avoid sham results in the performance of the animals.
(§4) The brain was extracted, and a homogenate (10% w/v) in 0.1 M of phosphate buffer (pH 7.4) was prepared by centrifugation for the assessment of brain oxidative status and estimating brain acetylcholinesterase activity. Catalase (CAT), superoxide dismutase (SOD), glutathione (GSH) and level of lipid peroxidation (malondialdehyde, MDA) were quantified as oxidative stress markers.

[4] = test system: scopolamine-induced amnesic mice; experiment: Y-Maze Paradigm, spontaneous alternation in scopolamine-induced amnesic model; format: in vivo, Balb/C mice; conditions: for Spontaneous Alternation Performance: scopolamine 1 mg/kg i.p., n = 8
Text: (§5) For assessment of acute toxicity of the flavones (F1–F5), animals (21 in number) were divided into groups of 3 animals each. The reported protocols by Lorke were followed with slight modification to perform tests in two phases. In the first phase, one (control) group of animals were given Tween-80 (2%), and oral doses of F1–F5 were given to the remaining groups, respectively, at various doses (mg/kg body weight). […] The animals were housed in plastic cages. After two weeks, the animals were sacrificed by euthanasia with isoflurane in a humane manner for assessment of the effects on total weight and weight of the vital organs. The biochemical parameters of blood and histological studies of vital organs (kidney and liver tissue) were also assessed. […] The preliminary pharmacological activity was assessed at various dose concentrations of F1–F5 (2.5–20 mg/kg b.w.) to determine the effective dose for assessment of cognitive function using animal models.
as §3
(§6) Behavioral tasks on the Y-Maze Paradigm and “NOD” tasks were conducted in the 5th week of study to determine learning and memory functions. The apparatus arena was cleaned with 70% ethanol during the inter-trial interval to prevent a confounding error due to the influence of odor [20, 21].
The Y-Maze task is a non-invasive and reliable behavioral test that was used for memory assessment of spontaneous alternation for F1–F5 based on previously reported protocols. A single session of Y-Maze was used to record the spontaneous alternation behavior of the animals to determine exploratory behavior and instant memory functioning. The apparatus was made of three arms in a “Y” shape (35 cm × 8 cm × 15 cm) with an equilateral triangular central area. In brief, each of the mice, previously naive to the maze, was placed at the terminal end of one arm. The animals were allowed to move and explore freely for 8 min through the maze. The number of arm entries was noted. One arm entry was considered when the hind paws of the animal were completely placed inside the arm, and the series of arm entries were documented. The spontaneous alternation in percent was calculated.

Balb/C mice = experiment: Acute toxicity study; format: in vivo; conditions: n = 3; for ALP / AST / Creatinine / Glucose / Total Cholesterol / Triglyceride: blood; for Kidney Weight / Liver Weight / Total Weight: mice
Text: Two weeks before the experiment, the animals were acclimatized to laboratory conditions.
as §5

[5] = biological target: T3, brain acetylcholinesterase (Mus musculus, UniProt P21836); format: in vivo; set-up: unit not given here; conditions: brain homogenate, n = 8
T3 construct: The brain was extracted, and a homogenate (10% w/v) in 0.1 M of phosphate buffer (pH 7.4) was prepared; from tissue; host or cells: mouse brain homogenate
Protocol: as §3, §4

[6] = test system: scopolamine-induced amnesic mice; experiment: Novel object discrimination (NOD) task in scopolamine-induced amnesic model; format: in vivo, Balb/C mice; conditions: scopolamine 1 mg/kg i.p., n = 8
Protocol: as §3, §6
Animals were challenged for the novel object discrimination task for F1–F5 as per previously reported protocols. After habituation and acclimatization, animals in each group had two consecutive object exploration trials (5 min each) for this test, with a break of 4 h in between two trials. In the familiarization phase (sample), the animals were challenged to explore two objects similar to each other. In the second phase (test), any of the two objects was changed by a new object. Exploration time in sec for the objects, including chewing, licking, sniffing or pointing the vibrissae of nose towards the object, was recorded. The discrimination ratio (%DI) was then determined using:(T novel object − T familiar object)/(T novel object + T familiar object) × 100(1)

[7] = 7.5 mg/kg b.w., n = 8, 7.5 mg/kg

T2 sequence (O42275 24-633): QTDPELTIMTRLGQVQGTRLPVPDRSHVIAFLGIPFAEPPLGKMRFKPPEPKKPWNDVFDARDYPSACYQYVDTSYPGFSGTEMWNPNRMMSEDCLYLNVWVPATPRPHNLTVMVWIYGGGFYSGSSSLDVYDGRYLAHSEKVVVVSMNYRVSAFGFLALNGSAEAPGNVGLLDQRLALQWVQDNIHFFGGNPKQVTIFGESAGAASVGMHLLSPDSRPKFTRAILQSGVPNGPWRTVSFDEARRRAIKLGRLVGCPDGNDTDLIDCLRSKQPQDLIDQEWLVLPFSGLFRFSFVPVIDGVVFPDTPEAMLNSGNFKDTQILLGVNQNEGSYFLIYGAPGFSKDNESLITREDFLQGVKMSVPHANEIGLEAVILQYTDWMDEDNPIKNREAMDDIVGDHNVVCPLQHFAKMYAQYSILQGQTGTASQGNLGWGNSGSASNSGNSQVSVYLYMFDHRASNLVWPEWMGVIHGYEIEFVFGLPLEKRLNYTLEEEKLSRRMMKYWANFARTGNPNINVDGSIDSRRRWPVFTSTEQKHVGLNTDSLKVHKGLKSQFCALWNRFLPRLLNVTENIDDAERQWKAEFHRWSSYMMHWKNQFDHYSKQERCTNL
T3 sequence (P21836 32-614): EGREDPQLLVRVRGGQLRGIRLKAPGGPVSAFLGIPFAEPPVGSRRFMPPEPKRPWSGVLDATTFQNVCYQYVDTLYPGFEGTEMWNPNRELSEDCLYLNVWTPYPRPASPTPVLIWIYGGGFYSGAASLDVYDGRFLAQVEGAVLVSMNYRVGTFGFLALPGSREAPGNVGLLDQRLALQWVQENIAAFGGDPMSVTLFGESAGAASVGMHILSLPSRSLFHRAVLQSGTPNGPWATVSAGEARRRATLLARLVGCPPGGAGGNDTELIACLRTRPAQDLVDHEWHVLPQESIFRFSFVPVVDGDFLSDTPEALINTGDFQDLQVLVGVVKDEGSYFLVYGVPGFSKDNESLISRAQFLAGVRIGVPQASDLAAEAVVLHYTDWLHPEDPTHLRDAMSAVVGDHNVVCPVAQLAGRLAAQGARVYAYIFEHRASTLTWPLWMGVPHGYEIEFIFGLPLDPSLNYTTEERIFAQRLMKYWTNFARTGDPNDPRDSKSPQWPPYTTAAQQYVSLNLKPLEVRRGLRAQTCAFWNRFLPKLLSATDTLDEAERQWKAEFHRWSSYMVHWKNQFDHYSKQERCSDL
T1 sequence (P81908 whole entry): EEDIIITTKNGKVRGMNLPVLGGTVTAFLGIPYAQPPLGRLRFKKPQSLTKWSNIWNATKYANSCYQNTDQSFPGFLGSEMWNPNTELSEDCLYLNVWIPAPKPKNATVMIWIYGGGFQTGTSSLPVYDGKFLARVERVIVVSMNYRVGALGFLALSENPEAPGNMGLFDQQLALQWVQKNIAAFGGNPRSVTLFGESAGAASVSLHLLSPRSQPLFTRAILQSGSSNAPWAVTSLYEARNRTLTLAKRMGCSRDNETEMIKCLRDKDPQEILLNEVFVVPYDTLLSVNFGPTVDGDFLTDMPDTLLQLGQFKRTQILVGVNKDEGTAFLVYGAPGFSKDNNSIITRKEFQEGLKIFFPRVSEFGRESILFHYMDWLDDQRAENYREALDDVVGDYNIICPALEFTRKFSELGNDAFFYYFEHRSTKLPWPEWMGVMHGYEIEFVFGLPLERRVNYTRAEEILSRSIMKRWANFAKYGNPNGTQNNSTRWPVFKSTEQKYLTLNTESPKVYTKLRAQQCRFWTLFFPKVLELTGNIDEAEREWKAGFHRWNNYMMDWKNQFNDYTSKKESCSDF

O=c1cc(-c2cccc(Cl)c2Cl)oc2ccccc12 [Compound F3]
IC50 [1]: 505 µM
IC50 [2]: 434 µM
CAT ([3]; 7.5 mg/kg b.w., n = 8): 22.97 ± 1.71 U/mg of Protein
GSH ([3]; 7.5 mg/kg b.w., n = 8): 35.61 ± 1.55 μg/mg of Protein
MDA ([3]; 7.5 mg/kg b.w., n = 8): 16.37 ± 1.13 nmol/mg Protein
SOD ([3]; 7.5 mg/kg b.w., n = 8): 9.19 ± 1.21 U/mg of Protein
CAT ([3]; 15 mg/kg b.w., n = 8): 24.50 ± 1.41 U/mg of Protein
GSH ([3]; 15 mg/kg b.w., n = 8): 36.98 ± 1.66 μg/mg of Protein
MDA ([3]; 15 mg/kg b.w., n = 8): 15.94 ± 1.65 nmol/mg Protein
SOD ([3]; 15 mg/kg b.w., n = 8): 9.41 ± 1.29 U/mg of Protein
Spontaneous Alternation Performance ([4]; 7.5 mg/kg b.w. p.o. 4 weeks): 59.61 ± 1.61 %
Spontaneous Alternation Performance ([4]; 15 mg/kg b.w. p.o. 4 weeks): 65.78 ± 1.57 %

O=c1cc(-c2cc(Cl)ccc2Cl)oc2ccccc12 [Compound F5]
IC50 [1]: 376 µM
IC50 [2]: 338 µM
ALP (Balb/C mice; 600 mg/kg b.w. oral): 134.41 ± 2.81 U/L
AST (Balb/C mice; 600 mg/kg b.w. oral): 108.37 ± 1.97 U/L
Creatinine (Balb/C mice; 600 mg/kg b.w. oral): 0.28 ± 0.04 mg/dL
Glucose (Balb/C mice; 600 mg/kg b.w. oral): 86.98 ± 2.12 mg/dL
Total Cholesterol (Balb/C mice; 600 mg/kg b.w. oral): 102.91 ± 1.93 mg/dL
Triglyceride (Balb/C mice; 600 mg/kg b.w. oral): 95.31 ± 2.61 mg/dL
Kidney Weight (Balb/C mice; 600 mg/kg b.w. oral): 0.30 ± 0.21 g
Liver Weight (Balb/C mice; 600 mg/kg b.w. oral): 1.24 ± 0.25 g
Total Weight (Balb/C mice; 600 mg/kg b.w. oral): 20.97 ± 1.66 g
ALP (Balb/C mice; 1000 mg/kg b.w. oral): 135.87 ± 2.24 U/L
AST (Balb/C mice; 1000 mg/kg b.w. oral): 107.41 ± 2.03 U/L
Creatinine (Balb/C mice; 1000 mg/kg b.w. oral): 0.35 ± 0.05 mg/dL
Glucose (Balb/C mice; 1000 mg/kg b.w. oral): 87.01 ± 2.21 mg/dL
Total Cholesterol (Balb/C mice; 1000 mg/kg b.w. oral): 103.02 ± 1.79 mg/dL
Triglyceride (Balb/C mice; 1000 mg/kg b.w. oral): 96.08 ± 2.01 mg/dL
Kidney Weight (Balb/C mice; 1000 mg/kg b.w. oral): 0.31 ± 0.24 g
Liver Weight (Balb/C mice; 1000 mg/kg b.w. oral): 1.22 ± 0.29 g
Total Weight (Balb/C mice; 1000 mg/kg b.w. oral): 21.88 ± 1.89 g
ALP (Balb/C mice; 2000 mg/kg b.w. oral): 133.91 ± 3.71 U/L
AST (Balb/C mice; 2000 mg/kg b.w. oral): 108.39 ± 1.89 U/L
Creatinine (Balb/C mice; 2000 mg/kg b.w. oral): 0.33 ± 0.06 mg/dL
Glucose (Balb/C mice; 2000 mg/kg b.w. oral): 86.89 ± 1.98 mg/dL
Total Cholesterol (Balb/C mice; 2000 mg/kg b.w. oral): 102.73 ± 2.10 mg/dL
Triglyceride (Balb/C mice; 2000 mg/kg b.w. oral): 95.37 ± 1.98 mg/dL
Kidney Weight (Balb/C mice; 2000 mg/kg b.w. oral): 0.29 ± 0.20 g
Liver Weight (Balb/C mice; 2000 mg/kg b.w. oral): 1.26 ± 0.21 g
Total Weight (Balb/C mice; 2000 mg/kg b.w. oral): 22.91 ± 1.67 g
ALP (Balb/C mice; 3000 mg/kg b.w. oral): 134.02 ± 3.28 U/L
AST (Balb/C mice; 3000 mg/kg b.w. oral): 107.76 ± 1.92 U/L
Creatinine (Balb/C mice; 3000 mg/kg b.w. oral): 0.30 ± 0.04 mg/dL
Glucose (Balb/C mice; 3000 mg/kg b.w. oral): 85.34 ± 2.01 mg/dL
Total Cholesterol (Balb/C mice; 3000 mg/kg b.w. oral): 103.09 ± 1.83 mg/dL
Triglyceride (Balb/C mice; 3000 mg/kg b.w. oral): 96.50 ± 2.05 mg/dL
Kidney Weight (Balb/C mice; 3000 mg/kg b.w. oral): 0.30 ± 0.19 g
Liver Weight (Balb/C mice; 3000 mg/kg b.w. oral): 1.23 ± 0.25 g
Total Weight (Balb/C mice; 3000 mg/kg b.w. oral): 22.65 ± 1.91 g
level of AChE ([5]; 7.5 mg/kg b.w.): 15.34 ± 0.69
level of AChE ([5]; 15 mg/kg b.w.): 14.67 ± 0.67
discrimination index (%DI) ([6]; 7.5 mg/kg b.w. p.o. 4 weeks): 59.76 ± 1.24%
discrimination index (%DI) ([6]; 15 mg/kg b.w. p.o. 4 weeks): 62.12 ± 1.28%
GSH ([3]; 7.5 mg/kg b.w., n = 8): 37.28 ± 1.60 μg/mg of Protein
MDA ([3]; 7.5 mg/kg b.w., n = 8): 14.98 ± 1.22 nmol/mg Protein
CAT [3, 7]: 24.18 ± 1.41 U/mg of Protein
SOD [3, 7]: 9.88 ± 1.49 U/mg of Protein
GSH ([3]; 15 mg/kg b.w., n = 8): 39.01 ± 1.39 μg/mg of Protein
MDA ([3]; 15 mg/kg b.w., n = 8): 14.48 ± 1.38 nmol/mg Protein
CAT ([3]; 15 mg/kg b.w., n = 8, 15 mg/kg): 24.91 ± 1.29 U/mg of Protein
SOD ([3]; 15 mg/kg b.w., n = 8, 15 mg/kg): 10.20 ± 1.62 U/mg of Protein
Spontaneous Alternation Performance ([4]; 7.5 mg/kg b.w. p.o. 4 weeks): 67.94 ± 1.51%
Spontaneous Alternation Performance ([4]; 15 mg/kg b.w. p.o. 4 weeks): 73.11 ± 1.63%
Spontaneous alternation performance (preliminary, selection of doses) ([4]; Table S1, dose 2.5 mg/kg b.w.): 38.63±1.78
Spontaneous alternation performance (preliminary, selection of doses) ([4]; Table S1, dose 5 mg/kg b.w.): 43.87±1.94
Spontaneous alternation performance (preliminary, selection of doses) ([4]; Table S1, dose 7.5 mg/kg b.w.): 66.53±1.89
Spontaneous alternation performance (preliminary, selection of doses) ([4]; Table S1, dose 10 mg/kg b.w.): 66.97±1.72
Spontaneous alternation performance (preliminary, selection of doses) ([4]; Table S1, dose 12.5 mg/kg b.w.): 67.33±2.05
